Assay results reported in PubChem BioAssay (NCI).
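Five concentrations, 48 hours, 96-well plates. TGI marks complete inhibition of growth.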

Legend:
Test in all cases: NCI-60 cell line screen, 48 h
[1] = tested on: A498 renal
[2] = tested on: BT-549 breast
[3] = tested on: CAKI-1 renal
[4] = tested on: CCRF-CEM leukemia
[5] = tested on: COLO 205 colon
[6] = tested on: HOP-62 NSCLC
[7] = tested on: HS 578T breast
[8] = tested on: KM12 colon
[9] = tested on: MCF7 breast
[10] = tested on: MDA-MB-435
[11] = tested on: NCI-H226 lung
[12] = tested on: OVCAR-4 ovarian
[13] = tested on: OVCAR-8 ovarian
[14] = tested on: SF-268 CNS
[15] = tested on: SK-OV-3 ovarian
[16] = tested on: SNB-19 CNS
[17] = tested on: SNB-75 CNS
[18] = tested on: KM20L2 colon
[19] = tested on: LXFL 529 NSCLC
[20] = tested on: DMS 114 small cell lung

`CCO/C(O)=C(/C(=N)N1CCCC1)C(=O)Nc1ccc(F)cc1` was tested, and the TGI [1] was greater than 100 µM, the TGI [2] was greater than 100 µM and the TGI [3] was greater than 100 µM. It also gave a TGI [4] greater than 100 µM, a TGI [5] greater than 100 µM and a TGI [6] greater than 100 µM. For the same compound, the TGI [7] was greater than 100 µM, the TGI [8] was greater than 100 µM and the TGI [9] was greater than 100 µM. For the same compound, the TGI [10] was greater than 100 µM, the TGI [11] was greater than 100 µM and the TGI [12] was greater than 100 µM. The TGI [13] was greater than 100 µM, the TGI [14] was greater than 100 µM and the TGI [15] was greater than 100 µM. The TGI [16] was greater than 100 µM and the TGI [17] was greater than 100 µM.

Compound `COc1cc2ccc1OCc1cccc(n1)COc1ccc(cc1OC)C=Nc1ccc(cc1)-c1ccc(cc1)N=C2` has a TGI [1] greater than 100 µM, a TGI [2] greater than 100 µM and a TGI [3] greater than 100 µM. It also gave a TGI [4] greater than 100 µM, a TGI [5] greater than 100 µM and a TGI [6] greater than 100 µM. For the same compound, the TGI [7] was greater than 100 µM, the TGI [8] was greater than 100 µM and the TGI [9] was greater than 100 µM. It also gave a TGI [10] greater than 100 µM, a TGI [11] greater than 100 µM and a TGI [12] greater than 100 µM. For the same compound, the TGI [13] was greater than 100 µM, the TGI [14] was greater than 100 µM and the TGI [15] was greater than 100 µM. It also gave a TGI [16] greater than 100 µM and a TGI [17] greater than 100 µM.

`CCCC(=O)OCC1OC(n2cc(F)c(=O)[nH]c2=O)C(F)C1OC(=O)CCC` (stereo unspecified) showed a TGI [1] greater than 100 µM, a TGI [2] greater than 100 µM and a TGI [3] greater than 100 µM. The TGI [4] was greater than 100 µM, the TGI [5] was greater than 100 µM and the TGI [6] was greater than 100 µM. The TGI [7] was greater than 100 µM, the TGI [8] was greater than 100 µM and the TGI [9] was greater than 100 µM. It also gave a TGI [10] greater than 100 µM, a TGI [11] greater than 100 µM and a TGI [12] greater than 100 µM. It also gave a TGI [13] greater than 100 µM, a TGI [14] greater than 100 µM and a TGI [15] greater than 100 µM. For the same compound, the TGI [17] was greater than 100 µM.

`CCN(CC)c1ccc2cc(C(=O)Nc3nc(C45CC6CC(CC(C6)C4)C5)cs3)c(=O)oc2c1` was tested, and the TGI [1] was greater than 100 µM, the TGI [2] was greater than 100 µM and the TGI [3] was greater than 100 µM. The TGI [4] was greater than 100 µM, the TGI [5] was greater than 100 µM and the TGI [6] was greater than 100 µM. The TGI [7] was greater than 100 µM, the TGI [8] was greater than 100 µM and the TGI [9] was greater than 100 µM. The TGI [10] was greater than 100 µM, the TGI [11] was greater than 100 µM and the TGI [12] was greater than 100 µM. The TGI [13] was greater than 100 µM, the TGI [14] was greater than 100 µM and the TGI [16] was greater than 100 µM.

Compound `Cc1ccc(CC(Cc2ccc(C)cc2C(=O)O)C(=O)O)cc1` (stereo unspecified) has a TGI [1] greater than 100 µM, a TGI [2] greater than 100 µM and a TGI [3] greater than 100 µM. The TGI [4] was greater than 100 µM, the TGI [5] was greater than 100 µM and the TGI [6] was greater than 100 µM. The TGI [7] was greater than 100 µM, the TGI [8] was greater than 100 µM and the TGI [9] was greater than 100 µM. It also gave a TGI [10] greater than 100 µM, a TGI [11] greater than 100 µM and a TGI [12] greater than 100 µM. For the same compound, the TGI [13] was greater than 100 µM, the TGI [14] was greater than 100 µM and the TGI [15] was greater than 100 µM. The TGI [16] was greater than 100 µM and the TGI [17] was greater than 100 µM.

`COc1ccc(N2C(=O)[C@@H]3[C@H](C2=O)c2[nH]c4ccccc4c2C2CCC(C(C)(C)C)C[C@@H]23)cc1` (stereo partly specified) showed a TGI [1] of 64 µM, a TGI [3] greater than 68.9 µM and a TGI [4] of 43.7 µM. It also gave a TGI [5] greater than 84.2 µM, a TGI [6] of 32.9 µM and a TGI [8] greater than 100 µM. For the same compound, the TGI [18] was greater than 100 µM, the TGI [19] was greater than 100 µM and the TGI [11] was 46.4 µM. It also gave a TGI [13] of 42.2 µM, a TGI [14] greater than 100 µM and a TGI [15] of 44.2 µM. For the same compound, the TGI [16] was greater than 61.4 µM and the TGI [17] was 38 µM.

Compound `Cn1c2ccccc2c2nc3ccccc3c(Cl)c21` has a TGI [1] greater than 100 µM, a TGI [2] greater than 100 µM and a TGI [3] greater than 100 µM. For the same compound, the TGI [4] was greater than 100 µM, the TGI [5] was greater than 100 µM and the TGI [6] was greater than 100 µM. The TGI [7] was greater than 100 µM, the TGI [8] was greater than 100 µM and the TGI [9] was greater than 100 µM. For the same compound, the TGI [10] was greater than 100 µM, the TGI [11] was greater than 100 µM and the TGI [12] was greater than 100 µM. It also gave a TGI [13] greater than 100 µM, a TGI [14] greater than 100 µM and a TGI [15] greater than 100 µM. The TGI [16] was greater than 100 µM and the TGI [17] was greater than 100 µM.

For `Cc1cc(N(CCC#N)CCC#N)ccc1N=Nc1cccc(Cl)c1`, the TGI [1] was greater than 100 µM, the TGI [3] was greater than 100 µM and the TGI [4] was greater than 100 µM. For the same compound, the TGI [5] was greater than 100 µM, the TGI [20] was greater than 100 µM and the TGI [6] was greater than 100 µM. It also gave a TGI [8] greater than 100 µM, a TGI [18] greater than 100 µM and a TGI [11] greater than 100 µM. It also gave a TGI [12] greater than 100 µM, a TGI [13] greater than 100 µM and a TGI [15] greater than 100 µM. For the same compound, the TGI [16] was greater than 100 µM.

`CC(C)(CC#N)c1cc(CC(C)(C)c2cc(CC(C)(C)c3cc(C(C)(C)C4(C)OCCO4)no3)no2)no1` showed a TGI [1] greater than 100 µM, a TGI [2] greater than 100 µM and a TGI [3] of 87.2 µM. It also gave a TGI [4] greater than 100 µM, a TGI [5] greater than 100 µM and a TGI [6] greater than 100 µM. The TGI [7] was 88.7 µM, the TGI [8] was greater than 100 µM and the TGI [9] was greater than 100 µM. The TGI [10] was greater than 100 µM, the TGI [11] was greater than 100 µM and the TGI [12] was 91 µM. The TGI [13] was greater than 100 µM, the TGI [14] was greater than 100 µM and the TGI [15] was greater than 100 µM. The TGI [16] was 77.7 µM and the TGI [17] was 43.5 µM.

`C[N+](C)(C)CC(=O)N/N=C(/CC1OC(=O)c2ccccc21)c1ccccc1O` (stereo unspecified) gave a TGI [1] of 77.1 µM, a TGI [2] of 95.7 µM and a TGI [3] greater than 100 µM. It also gave a TGI [4] of 49.3 µM, a TGI [5] greater than 100 µM and a TGI [6] greater than 100 µM. For the same compound, the TGI [7] was greater than 100 µM, the TGI [8] was greater than 100 µM and the TGI [9] was greater than 100 µM. It also gave a TGI [10] of 97.8 µM, a TGI [11] of 57.4 µM and a TGI [12] greater than 100 µM. For the same compound, the TGI [13] was 82 µM, the TGI [14] was greater than 100 µM and the TGI [15] was greater than 100 µM. The TGI [16] was greater than 100 µM and the TGI [17] was greater than 100 µM.

With `COc1cc2c(c(OC)c1OC)C(=O)[C@H](Br)[C@H]2NC(=O)NCCCl` the TGI [1] was greater than 100 µM, the TGI [2] was greater than 100 µM and the TGI [3] was greater than 100 µM. For the same compound, the TGI [4] was greater than 100 µM, the TGI [5] was greater than 100 µM and the TGI [6] was greater than 100 µM. The TGI [7] was greater than 100 µM, the TGI [8] was greater than 100 µM and the TGI [9] was greater than 100 µM. For the same compound, the TGI [10] was greater than 100 µM, the TGI [11] was greater than 100 µM and the TGI [12] was greater than 100 µM. For the same compound, the TGI [13] was greater than 100 µM, the TGI [14] was greater than 100 µM and the TGI [15] was greater than 100 µM. The TGI [16] was greater than 100 µM and the TGI [17] was greater than 100 µM.

In the case of `O=S(=O)(NC1OCCCC1I)c1ccccc1` (stereo unspecified), the TGI [1] is reported as greater than 100 µM, the TGI [2] is reported as greater than 100 µM and the TGI [3] is reported as greater than 100 µM. For the same compound, the TGI [4] was greater than 100 µM, the TGI [5] was greater than 100 µM and the TGI [6] was greater than 100 µM. The TGI [7] was greater than 100 µM, the TGI [8] was greater than 100 µM and the TGI [9] was greater than 100 µM. For the same compound, the TGI [10] was greater than 100 µM, the TGI [11] was greater than 100 µM and the TGI [12] was greater than 100 µM. For the same compound, the TGI [13] was greater than 100 µM, the TGI [14] was greater than 100 µM and the TGI [15] was greater than 100 µM. The TGI [16] was greater than 100 µM and the TGI [17] was greater than 100 µM.

Compound `CN(/N=C\c1ccc2ccccc2c1)C1=NCCN1` has a TGI [1] of 28.6 µM, a TGI [2] of 29.9 µM and a TGI [3] of 27.4 µM. It also gave a TGI [4] of 65 µM, a TGI [5] of 31.9 µM and a TGI [6] of 40.7 µM. The TGI [7] was 47.5 µM, the TGI [8] was 32.8 µM and the TGI [9] was 38.7 µM. For the same compound, the TGI [10] was 30.1 µM, the TGI [11] was 37.8 µM and the TGI [12] was 73 µM. For the same compound, the TGI [13] was greater than 100 µM, the TGI [14] was 84.1 µM and the TGI [15] was greater than 100 µM. It also gave a TGI [17] of 41.5 µM.

Compound `CC(/C=N\NC(=S)N(C)C)=N/NC(=S)N(C)C` has a TGI [1] of 20.1 µM, a TGI [2] greater than 47.7 µM and a TGI [3] greater than 56.2 µM. It also gave a TGI [5] of 33.7 µM, a TGI [6] greater than 51.1 µM and a TGI [7] of 52.8 µM. The TGI [8] was greater than 60.9 µM, the TGI [9] was greater than 100 µM and the TGI [10] was greater than 100 µM. The TGI [11] was 13.9 µM, the TGI [12] was greater than 100 µM and the TGI [13] was greater than 100 µM. The TGI [14] was greater than 29.3 µM, the TGI [15] was greater than 51.9 µM and the TGI [16] was greater than 100 µM. It also gave a TGI [17] greater than 100 µM.
